This is an account of results in patent US20030215878A1, “Novel G protein-coupled purinergic receptor, GAVE17” (priority 2002, published 2003).

Assay [1] deals with T1, GAVE17 (Homo sapiens, UniProt Q9BPV8).
T1 sequence (Q9BPV8 1-333 isoform Q9BPV8-2): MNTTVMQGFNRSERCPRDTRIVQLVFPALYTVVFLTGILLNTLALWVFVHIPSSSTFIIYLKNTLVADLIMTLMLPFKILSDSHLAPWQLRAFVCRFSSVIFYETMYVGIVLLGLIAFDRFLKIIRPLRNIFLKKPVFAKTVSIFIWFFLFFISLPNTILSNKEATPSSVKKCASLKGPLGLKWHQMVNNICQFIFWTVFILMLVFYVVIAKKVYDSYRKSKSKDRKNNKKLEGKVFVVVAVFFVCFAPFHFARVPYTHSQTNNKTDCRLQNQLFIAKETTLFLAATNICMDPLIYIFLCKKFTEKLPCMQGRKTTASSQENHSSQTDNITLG
Put plainly: Nucleotide ligand activation of and affinity for GAVE17 in transformed NIH 3T3 cells. It counts as cell-based. More on the design: expressed in transfected cells; host or cells: NIH 3T3. Particulars: for Kd: transformed NIH 3T3 cells.

Assay [2] concerns the target T1, GAVE17. Put plainly: Agonist assay utilizing FLIPR, NIH 3T3 cell line transfected with hGAVE17 (Ca2+ fluorescence). More on the design: host or cells: Gα16-coupled NIH 3T3. It counts as cell-based. The note with it: NIH313 cell line transfected with PEAK8 expression vector comprising SEQ ID NO:1; FIGS. 3a-d. The text has this: To screen for agonists of human GAVE17, hGAVE17 is coupled artificially to a Gq mechanism. Activation of the Gq mechanism stimulates the release of Ca^2+ from sarcoplasmic reticulum vesicles within the cell. The Ca^2+ is released into the cytoplasm where it can be detected using Ca^2+ chelating dyes. A Fluorometric Imaging Plate Reader or FLIPR® apparatus (Molecular Devices) is used to monitor any resulting changes in fluorescence. The activity of an agonist is reflected by an increase in fluorescence.
In a particular example, NIH 3T3 cells expressing hGAVE17 are pre-engineered to express an indiscriminate form of Gq protein (Gα16). To prepare such cells, Gα16-coupled NIH 3T3 cells are obtained commercially (Molecular Devices LIVEWARE™ cells, Catalog No. RD-HGA16) and the protocol in Example 2 followed to facilitate expression of hGAVE17 in those cells.
The cells are maintained in log phase of growth at 37° C. and 5% CO2 in F12 Ham's media (Gibco/BRL, Catalog No. 11765-054) containing 10% fetal bovine serum, 100 lU/ml penicillin (Gibco/BRL, Catalog No. 15140-148), 100 μg/ml streptomycin (Catalog No. 15140-148, Gibco/BRL), 400 μg/ml genetecin (G418) (Gibco/BRL, Catalog No. 10131-035) and 200 μg/ml zeocin (Invitrogen, Catalog No. R250-05). One day prior to an assay, 12,500 cells/well of the NIH 3T3 cells are plated onto 384-well clear-bottomed assay plates with a well volume of 50 μl (Greiner/Marsh, Catalog No. N58102) using a 96/384 Multidrop device (Labsystems, Type 832). The cells are incubated at 37° C. in a humidified 5% CO2 incubator (Forma Scientific CO2 water-jacketed incubator Model 3110).
The following stock solutions are prepared: a 1 M stock solution of Hepes (pH 7.5) (Gibco/BRL, Catalog No. 15630-080); a 250 mM stock solution of probenicid (Sigma, Catalog No. P8761) made in 1 N NaOH; and a 1 mM stock solution of Fluo 4-AM Dye (Molecular Probes, Catalog No. F1 4202) made in DMSO (Sigma D2650). Reaction buffer is prepared with 1000 ml Hank's balanced salt solution (Fisher/Mediatech, Catalog No. MT21023), 20 ml of the 1 M Hepes stock solution and 10 ml of the 250 mM probenicid stock solution. […]
A compound library containing possible agonists such as various purine derivatives or purine mimetics is tested at a concentration of 10 μM in physiological salt buffer. Changes in fluorescence are measured for 10 seconds prior to compound addition. After the addition of the compound, fluorescence is measured every second for the first minute followed by exposures taken every six seconds for a total experimental analysis time of three minutes. […]

What is called Kd is the free concentration of one partner at which half of the binding sites on the other are occupied at equilibrium, for simple one-to-one binding. Read a low Kd as tighter binding. Regarding `Nc1ncnc2c1ncn2[C@@H]1O[C@H](COP(=O)(O)OP(=O)(O)O)[C@@H](O)[C@H]1O` [ADP], in assay [1], the “activation of GAVE17” value is listed as “activate” and the Kd stood at 26 µM. Moreover, the “agonist activity (FLIPR units vs log molar concentration)” value in assay [2] is “agonist activity”.

Regarding `Nc1ncnc2c1ncn2[C@@H]1O[C@H](COP(=O)(O)OP(=O)(O)OP(=O)(O)O)[C@@H](O)[C@H]1O` [ATP], in assay [1], the “activation of GAVE17” value is listed as “activate” and the Kd came out at 0.8 µM. In addition, in assay [2], the “agonist activity (FLIPR units vs log molar concentration)” value is recorded as “agonist activity”.

For `Nc1nc2c(ncn2[C@@H]2O[C@H](COP(=O)(O)OP(=O)(O)O)[C@@H](O)[C@H]2O)c(=O)[nH]1` [GDP], in assay [1], the “activation of GAVE17” value is reported as “activate” and the Kd is 65 µM.

In the case of `O=c1ccn([C@@H]2O[C@H](COP(=O)(O)OP(=O)(O)O)[C@@H](O)[C@H]2O)c(=O)[nH]1` [UDP], in assay [1], the “activation of GAVE17” value is “activate” and the Kd amounted to 10 µM. Moreover, the “agonist activity (FLIPR units vs log molar concentration)” value in assay [2] is reported as “agonist activity”.

Take `O=c1ccn([C@@H]2O[C@H](COP(=O)(O)OP(=O)(O)OP(=O)(O)O)[C@@H](O)[C@H]2O)c(=O)[nH]1` [UTP]: in assay [1], the “activation of GAVE17” value was “activate” and binding was put at a Kd of 6.9 µM. In assay [2], the “agonist activity (FLIPR units vs log molar concentration)” value is reported as “agonist activity”.
